US20260102407A1, “TREATMENT METHODS” (priority 2020, published 2026)

Tests used:
[1] = tested on: ERK phosphorylation; assay: Western blot, IL-1β-inducible ERK phosphorylation in HMEC-1; format: cell-based, human
Protocol: Western blot analysis with extracts of cells treated with […]. HMEC-1 (80-90% confluency) were arrested in serum-free MCDB131 medium (Invitrogen, MD) without any growth factor for 48 h. Cells were treated with 30 μM compound in serum-free medium for 4 h, and incubated with 20 ng/ml IL-1β (Sigma, cat. SRE3083) in serum-free medium with the same concentration of compound for up to 4 h, unless otherwise indicated. Total protein was harvested as previously described using RIPA buffer with protease inhibitors. Proteins were resolved on 4-20% (w/v) SDS-polyacrylamide gradient gels and transferred to Immobilon-P PVDF membranes. Membranes were blocked with 5% skim milk and incubated with rabbit monoclonal FosB (cat. 2251S, 1:1000, Cell Signaling, USA), rabbit monoclonal VCAM-1 (cat. 13662S, 1:1000, Cell Signaling, USA), rabbit monoclonal p44/42 MAPK (cat. 4695S, 1:1000, Cell Signaling, USA), rabbit polyclonal p38 MAPK (cat. 9212S, 1:1000, Cell Signaling, USA), rabbit polyclonal SAPK/JNK (cat. 9252S, 1:1000, Cell Signaling, USA), rabbit monoclonal phospho-SAPK/JNK (cat. 4671S, 1:1000, Cell Signaling, USA), rabbit monoclonal phospho-p38 MAPK (cat. 4511S, 1:1000, Cell Signaling, USA), or, mouse monoclonal phospho-p44/42 MAPK antibodies (cat. 9106S, 1:2000, Cell Signaling, USA) at 4° C. overnight or mouse monoclonal β-actin antibodies (cat. A5316, 1:10000, Sigma-Aldrich) antibodies at 22° C. for 1 h. Membranes were then incubated with horseradish peroxidase conjugated secondary goat anti-rabbit (cat. P0448, 1:1000, DAKO Cytomation, Denmark) or goat anti-mouse (cat. P0447, 1:1000, DAKO Cytomation, Denmark) antibodies for 1 h. Chemiluminescence was detected using the Western Lightning Chemiluminescence system and ImageQuant™ LAS 4000 biomolecular imager. Band intensity in images generated with the LAS 4000 using the same settings were quantified by NIH ImageJ.

[2] = GLP ocular pharmacokinetics study, single intravitreal injection; format: in vivo; conditions: rabbit, eye, other: intravitreal injection; rabbits; single intravitreal injection 10 μg/50 μl; read-out: ocular half-life (t1/2) (converted)
[3] = tested on: VCAM-1; assay: Flow cytometry of VCAM-1 on IL-1β-treated HMEC-1; format: cell-based, human; conditions: 30 μM, 20 ng/ml IL-1β 4 h
Protocol: Flow cytometry. HMEC-1 (at 80-90% confluency) were arrested in serum-free MCDB131 medium without EGF or hydrocortisone for 40 h, treated with 30 μM BT2 or BT3 for 4 h. The cells were incubated in serum-free medium and exposed to 20 ng/ml IL-1β with the same concentration of BT2 or BT3 for a further 4 h. The cells were washed with PBS then detached with Accutase (Stem Cell Technologies, cat. 07920). The cells were centrifuged at 300 g for 5 min and resuspended at 5×10^6 cells/ml containing BT2 or BT3. The cells were incubated with BV421-conjugated mouse anti-human CD106 (VCAM-1) (BD, cat. 744309) or BV421-conjugated mouse IgG1 (BD, cat. 562438) for 45 min at 22° C. The cells were washed with Stain Buffer and the pellet was resuspended in 0.5 ml of 1% paraformaldehyde prior to flow cytometry BD FACSCanto II.
VCAM-1^+ and VCAM-1^− cells were gated by performing flow cytometry with or without primary VCAM-1 antibody (non-specific staining), respectively. […] The gating strategy is based on fluorescence excitation off both the 488 nm laser and 405 nm laser with emission filters 670LP off 488 nm and 450/50 off 405 nm. Cells with autofluorescence or negative (blue population) had equal proportion of fluorescence in both channels and VCAM-1 positive cells (red) emit light in the 450/50 filter.

[4] = tested on: ICAM-1; assay: Collagen antibody-induced arthritis, hind limb immunohistochemistry for ICAM-1; format: in vivo, mouse; conditions: CAIA mice; Day 14 hind limbs
Protocol: Collagen antibody-induced arthritis. Arthritis was induced in female Balb/c mice (6-8 week-old) as previously described with a commercially obtained cocktail of 5 monoclonal antibodies to type II collagen at 2 mg/mouse (Chondrex, Inc. Redmond, WA) followed by LPS (50 μg/mouse) with or without BT2 (3 or 30 mg/kg mouse) in DMSO vehicle was administered i.p. on Day 3. Hind footpad thickness was measured on Day 9 using digital calipers. Mice were sacrificed on Day 14 and microCT scanning of hind limbs was performed.
Immmunohistochemical staining of hind limbs for VCAM-1 and ICAM-1 and analysis. Formalin-fixed, paraffin embedded of hind limbs were sectioned (5 μm). Dako EnVision Rabbit Kit (cat. K4011, Dako) was used for immmunohistochemical staining for VCAM-1 and ICAM-1. […] Integrated optical density (IOD) of positive staining in ankle joint (tibia and talus) articular cartilage was assessed for VCAM-1 and ICAM-1 using Image-Pro Plus software (Cybernetics, Bethesda, MD, USA). Area (μm^2) of ankle joint articular cartilage was measured using Image-Pro Plus software. Total cell number and positive staining cell number in ankle joint articular cartilage were counted manually using Image-Pro Plus software. […]

[5] = tested on: p-SAPK/JNK; assay: Western blot, IL-1β-inducible p-SAPK/JNK in HMEC-1; format: cell-based, human; conditions: 1-30 μM
Protocol: Western blot analysis with extracts of cells treated with IL-13. HMEC-1 (80-90% confluency) were arrested in serum-free MCDB131 medium (Invitrogen, MD) without any growth factor for 48 h. Cells were treated with 30 μM compound in serum-free medium for 4 h, and incubated with 20 ng/ml IL-1β (Sigma, cat. SRE3083) in serum-free medium with the same concentration of compound for up to 4 h, unless otherwise indicated. Total protein was harvested as previously described using RIPA buffer with protease inhibitors. Proteins were resolved on 4-20% (w/v) SDS-polyacrylamide gradient gels and transferred to Immobilon-P PVDF membranes. […] Chemiluminescence was detected using the Western Lightning Chemiluminescence system and ImageQuant™ LAS 4000 biomolecular imager. Band intensity in images generated with the LAS 4000 using the same settings were quantified by NIH ImageJ.

## CCOC(=O)Nc1ccc2c(c1)C(=O)N(CC)c1ccccc1O2 [BT2, (10-ethyl-11-oxo-10,11-dihydro-dibenzo[b,f][1,4]oxazepin-2-yl)-carbamic acid ethyl ester]
[1]; 30 μM, 20 ng/ml IL-1β up to 4 h
  IL-1β-inducible ERK phosphorylation (Western blot): inhibited
[1]; dose escalation 1-30 μM
  inhibition of IL-1β-inducible ERK phosphorylation, potency relative to PD98059: more potently than PD98059
[2]
  half-life: 79.2 h
[3]
  VCAM-1 expression by flow cytometry: inhibition of VCAM-1
[4]
  ICAM-1 expression in bone: inhibit VCAM-1 and ICAM-1 expression
[5]
  IL-1β-inducible p-SAPK/JNK: no effect
